The text below walks through data of PMC3495596 (Journal of medicinal chemistry, 2012).

Test [1] deals with T1, thermolysin (Bacillus thermoproteolyticus, UniProt P00800). Format: biochemical. The note with it: free energy of binding corresponding to Ki.
The target in test [2] is T1, thermolysin. It is filed as binding.

T1 sequence (P00800 233-548): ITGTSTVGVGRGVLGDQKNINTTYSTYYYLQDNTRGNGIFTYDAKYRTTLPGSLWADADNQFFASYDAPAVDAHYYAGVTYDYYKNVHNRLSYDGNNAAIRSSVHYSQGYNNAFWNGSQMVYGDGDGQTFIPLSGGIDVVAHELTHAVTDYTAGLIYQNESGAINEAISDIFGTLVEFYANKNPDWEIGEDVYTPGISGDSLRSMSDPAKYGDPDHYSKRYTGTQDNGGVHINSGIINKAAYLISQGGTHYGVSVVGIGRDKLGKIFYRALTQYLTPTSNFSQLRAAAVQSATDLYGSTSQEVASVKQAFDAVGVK

`CCNC(=O)[C@H](CC(C)C)NP(=O)([O-])CNC(=O)OCc1ccccc1.[Li+]` [Compound 8d, N-(N-(benzyloxycarbonyl)-aminomethylphosphonyl)-N′-ethyl-L-leucinamide lithium] registered a ΔGKi at thermolysin [1] of -8.91 kcal/mol.

The molecule `CNC(=O)[C@H](CC(C)C)NP(=O)([O-])CNC(=O)OCc1ccccc1.[Li+]` [Compound 8c, N-(N-(benzyloxycarbonyl)-aminomethylphosphonyl)-N′-methyl-L-leucinamide lithium] yielded a ΔGKi on thermolysin [1] of -8.25 kcal/mol. Turning to `CC(C)C[C@H](NP(=O)([O-])CNC(=O)OCc1ccccc1)C(=O)N[C@@H](C)C(=O)[O-].[Li+].[Li+]` [Compound 8b, N-(N-(N-(benzyloxycarbonyl)-aminomethylphosphonyl)-L-leucinyl)-alaninate di-Lithium], on thermolysin [2], the ΔΔH is -3.18 kcal/mol. This molecule returned a ΔGKi at thermolysin [1] of -10.5 kcal/mol.

Take `CC(C)C[C@H](NP(=O)([O-])CNC(=O)OCc1ccccc1)C(=O)NCC(=O)[O-].[Li+].[Li+]` [Compound 8a, N-(N-(N-(benzyloxycarbonyl)-aminomethylphosphonyl)-L-leucinyl)-glycinate di-lithium]: the ΔGKi on thermolysin [1] is -8.63 kcal/mol.
